Numbered stars: 1 amine (or outer) side, 2 acyl side, 3 side chain; on linkers, the order of the positions; unused ones are H or OH. Bridge positions count the residues as written; N and C are the ends. Square brackets hold non-standard residues; d marks the D form. Side chains are listed from the residue outwards. Peptide text beside a SMILES is read from it. * marks the point of attachment. C20 diacid = O=C(O)CCCCCCCCCCCCCCCCCCC(=O)*; C18 diacid = O=C(O)CCCCCCCCCCCCCCCCC(=O)*; γGlu = O=C(O)[C@H](CCC(=O)[*:2])N[*:1]; αMeF = C[C@](N)(Cc1ccccc1)C(=O)O
Experiments:
[1] = target: T1, human amylin receptor (calcitonin receptor co-expressed with receptor activity modifying protein, RAMP3) (hAMYR3) (Homo sapiens, UniProt O60896+P30988); experiment: cAMP production in 1321N1 cells with stable recombinant expression of human amylin receptor (hAMYR3); format: cell-based; details: for Ratio (selectivity hAMYR vs hCTR, ratio of EC50 values at the two receptors): EC50 hCTR / EC50 hAMYR3; for EC50: cAMP, 1321N1 cells, assay buffer with 0.1% BSA, read-out: EC50 (pM) hAMYR3
T1 construct: expressed in transfected cells
T1 sequence (P30988 25-474): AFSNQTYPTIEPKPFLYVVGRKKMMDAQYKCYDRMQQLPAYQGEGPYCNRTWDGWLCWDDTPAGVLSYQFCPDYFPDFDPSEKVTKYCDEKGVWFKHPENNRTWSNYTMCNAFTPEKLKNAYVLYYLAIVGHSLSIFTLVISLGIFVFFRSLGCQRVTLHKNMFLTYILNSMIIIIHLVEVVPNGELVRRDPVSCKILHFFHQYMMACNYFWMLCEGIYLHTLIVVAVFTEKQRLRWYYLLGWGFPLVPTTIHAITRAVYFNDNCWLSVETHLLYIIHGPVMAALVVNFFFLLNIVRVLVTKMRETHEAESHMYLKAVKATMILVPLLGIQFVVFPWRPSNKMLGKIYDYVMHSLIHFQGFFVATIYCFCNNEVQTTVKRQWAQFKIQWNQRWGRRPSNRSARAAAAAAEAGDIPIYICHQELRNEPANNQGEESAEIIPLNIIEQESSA
T1 sequence (O60896 24-148 partner): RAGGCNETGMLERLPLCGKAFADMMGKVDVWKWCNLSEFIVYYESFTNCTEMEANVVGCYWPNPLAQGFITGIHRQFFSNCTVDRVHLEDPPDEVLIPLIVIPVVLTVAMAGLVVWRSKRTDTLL
Description: (§1) The functional activities of lipidated pramlintide analogue peptides, such as cAMP production, were tested in 1321N1 cell line with stable recombinant expression of human calcitonin receptor (hCTR) or human amylin receptor (calcitonin receptor co-expressed with receptor activity modifying protein, RAMP3) (hAMYR3) or HEK cells with stable recombinant expression of rat calcitonin receptor (rat CTR) or rat amylin receptor (calcitonin receptor co-expressed with receptor activity modifying protein, RAMP3) (Rat AMYR3).
(§2) Cryopreserved cell stock was thawed rapidly in a water-bath, suspended in assay buffer (0.1% BSA (Sigma # A3059) in HBSS (Sigma # H8264) with 25 mM HEPES, pH 7.4 and containing 0.5 mM IB MX (Sigma# 17018)) and spun at 240×g for 5 minutes. Cells were re-suspended in assay buffer at a batch-dependent optimized concentration (e.g. hCTR cells at 0.125×10^5 cells/mL, hAMYR3 cells at 0.125×10^5 cells/mL, rat CTR cells at 1x10^5 cells/mL, rat AMYR3 at 2×10^5 cells/mL).
(§3) The test peptide stock was prepared in DMSO and diluted in assay buffer to reach stated concentrations and transferred in duplicates into a 384-black shallow well microtitre assay plate (Corning # 3676). Cells were added to the assay plate, incubated at room temperature for 30 minutes and the cAMP level measured using cAMP dynamic 2 HTRF kit (Cisbio, Cat # 62AM4PEJ), following the two step protocol as per manufacturer's recommendations. The plates were read on an Envision (Perkin Elmer) using excitation wavelength of 320 nm and emission wavelengths of 620nm & 665 nm.
(§4) Data was transformed to % Delta F as described in the manufacturer's guidelines and analyzed as percent activation of maximal amylin or calcitonin effect by 4-parameter logistic fit to determine EC50 values. The selectivity of a peptide to hAMYR vs hCTR is defined as a ratio of EC50 values at the two receptors.

[2] = target: T2, human calcitonin receptor (hCTR) (Homo sapiens, UniProt P30988); experiment: cAMP production in 1321N1 cells with stable recombinant expression of human calcitonin receptor (hCTR); format: cell-based; details: cAMP, 1321N1 cells, assay buffer with 0.1% BSA; read-out: EC50 (pM) hCTR
T2 construct: expressed in transfected cells
T2 sequence (P30988 25-474): T1 sequence (P30988 25-474)
Description: as §1, §2, §3, §4

| SMILES | Ratio (selectivity hAMYR vs hCTR, ratio of EC50 values at the two receptors) [1] | EC50 [1] [pM] | EC50 [2] [pM] |
| --- | --- | --- | --- |
| CC[C@H](C)[C@H](NC(=O)[C@@H]1CCCN1C(=O)CNC(=O)[C@](C)(Cc1ccccc1)NC(=O)[C@H](CC(N)=O)NC(=O)[C@H](CC(N)=O)NC(=O)[C@H](CO)NC(=O)[C@H](CO)NC(=O)[C@H](Cc1c[nH]cn1)NC(=O)[C@@H](NC(=O)[C@H](CC(C)C)NC(=O)[C@H](Cc1ccccc1)NC(=O)[C@H](CC(N)=O)NC(=O)[C@H](C)NC(=O)[C@H](CC(C)C)NC(=O)[C@H](CCCNC(=N)N)NC(=O)[C@H](CCC(N)=O)NC(=O)[C@@H](NC(=O)[C@H](C)NC(=O)[C@@H]1CSSC[C@H](NC(=O)[C@H](CCCCN)NC(=O)[C@@H](N)CCCCNC(=O)CC[C@H](NC(=O)CCCCCCCCCCCCCCCCC(=O)O)C(=O)O)C(=O)N[C@@H](CC(N)=O)C(=O)N[C@@H]([C@@H](C)O)C(=O)N[C@@H](C)C(=O)N[C@@H]([C@@H](C)O)C(=O)N1)[C@@H](C)O)C(C)C)C(=O)N[C@@H](CC(C)C)C(=O)N1CCC[C@H]1C(=O)N1CCC[C@H]1C(=O)N[C@H](C(=O)N[C@@H](CC(N)=O)C(=O)N[C@H](C(=O)NCC(=O)N[C@@H](CO)C(=O)N[C@@H](CC(N)=O)C(=O)N[C@H](C(=O)N[C@@H](Cc1ccc(O)cc1)C(N)=O)[C@@H](C)O)C(C)C)[C@@H](C)O [Peptide 14, K(γE-C18diacid)K[CNTATC]ATQRLANFLVHSSNN(αMePhe)GPILPPTNVGSNTY-amide] (H-K([γGlu-C18 diacid])KCNTATCATQRLANFLVHSSNN[αMeF]GPILPPTNVGSNTY-NH2; disulfide 3-8; N-terminus assumed) | 6 | 220 | 1350 |
| CC[C@H](C)[C@H](NC(=O)[C@@H]1CCCN1C(=O)CNC(=O)[C@](C)(Cc1ccccc1)NC(=O)[C@H](CC(N)=O)NC(=O)[C@H](CC(N)=O)NC(=O)[C@H](CO)NC(=O)[C@H](CO)NC(=O)[C@H](Cc1c[nH]cn1)NC(=O)[C@H](CCCNC(=N)N)NC(=O)[C@H](CC(C)C)NC(=O)[C@H](Cc1ccccc1)NC(=O)[C@H](CC(N)=O)NC(=O)[C@H](C)NC(=O)[C@H](CC(C)C)NC(=O)[C@H](CCCNC(=N)N)NC(=O)[C@H](CCC(N)=O)NC(=O)[C@@H](NC(=O)[C@H](C)NC(=O)[C@@H]1CSSC[C@H](NC(=O)[C@@H](N)CCCCNC(=O)CC[C@H](NC(=O)CCCCCCCCCCCCCCCCC(=O)O)C(=O)O)C(=O)N[C@@H](CC(N)=O)C(=O)N[C@@H]([C@@H](C)O)C(=O)N[C@@H](C)C(=O)N[C@@H]([C@@H](C)O)C(=O)N1)[C@@H](C)O)C(=O)N[C@@H](CC(C)C)C(=O)N1CCC[C@H]1C(=O)N1CCC[C@H]1C(=O)N[C@H](C(=O)N[C@@H](CCC(=O)O)C(=O)N[C@H](C(=O)NCC(=O)N[C@@H](CO)C(=O)N[C@@H](CC(N)=O)C(=O)N[C@H](C(=O)N[C@@H](Cc1ccc(O)cc1)C(N)=O)[C@@H](C)O)C(C)C)[C@@H](C)O [Peptide 16, K(γE-C18diacid)[CNTATC]ATQRLANFLRHSSNN(αMePhe)GPILPPTEVGSNTY-amide] (H-K([γGlu-C18 diacid])CNTATCATQRLANFLRHSSNN[αMeF]GPILPPTEVGSNTY-NH2; disulfide 2-7; N-terminus assumed) | 9 | 221 |  |
| CC[C@H](C)[C@H](NC(=O)[C@@H]1CCCN1C(=O)CNC(=O)[C@H](Cc1ccccc1)NC(=O)[C@H](CC(N)=O)NC(=O)[C@H](CC(N)=O)NC(=O)[C@H](CO)NC(=O)[C@H](CO)NC(=O)[C@H](Cc1c[nH]cn1)NC(=O)[C@@H](NC(=O)[C@H](CC(C)C)NC(=O)[C@H](Cc1ccccc1)NC(=O)[C@H](CC(N)=O)NC(=O)[C@H](C)NC(=O)[C@H](CC(C)C)NC(=O)[C@H](CCCNC(=N)N)NC(=O)[C@H](CCC(N)=O)NC(=O)[C@@H](NC(=O)[C@H](C)NC(=O)[C@@H]1CSSC[C@H](NC(=O)[C@@H](N)CCCCNC(=O)CC[C@H](NC(=O)CC[C@H](NC(=O)CCCCCCCCCCCCCCCCCCC(=O)O)C(=O)O)C(=O)O)C(=O)N[C@@H](CC(N)=O)C(=O)N[C@@H]([C@@H](C)O)C(=O)N[C@@H](C)C(=O)N[C@@H]([C@@H](C)O)C(=O)N1)[C@@H](C)O)C(C)C)C(=O)N[C@@H](CC(C)C)C(=O)N1CCC[C@H]1C(=O)N1CCC[C@H]1C(=O)N[C@H](C(=O)N[C@@H](CC(N)=O)C(=O)N[C@H](C(=O)NCC(=O)N[C@@H](CO)C(=O)N[C@@H](CCCNC(=N)N)C(=O)N[C@H](C(=O)N[C@@H](Cc1ccc(O)cc1)C(N)=O)[C@@H](C)O)C(C)C)[C@@H](C)O [Peptide 114] (H-K([γGlu-γGlu-C20 diacid])CNTATCATQRLANFLVHSSNNFGPILPPTNVGSRTY-NH2; disulfide 2-7 (inferred)) | 12 |  |  |
| CC[C@H](C)[C@H](NC(=O)[C@H](C)NC(=O)[C@@H]1CCCN1C(=O)[C@H](Cc1ccccc1)NC(=O)[C@H](CC(N)=O)NC(=O)[C@@H]1CCCN1C(=O)[C@H](CO)NC(=O)[C@H](CO)NC(=O)[C@H](Cc1c[nH]cn1)NC(=O)[C@@H](NC(=O)[C@H](CC(C)C)NC(=O)[C@H](Cc1ccccc1)NC(=O)[C@H](CC(N)=O)NC(=O)[C@H](C)NC(=O)[C@H](CC(C)C)NC(=O)[C@H](CCCNC(=N)N)NC(=O)[C@H](CCC(N)=O)NC(=O)[C@@H](NC(=O)[C@H](C)NC(=O)[C@@H]1CSSC[C@H](NC(=O)[C@@H](N)CCCCNC(=O)CC[C@H](NC(=O)CC[C@H](NC(=O)CCCCCCCCCCCCCCCCCCC(=O)O)C(=O)O)C(=O)O)C(=O)N[C@@H](CC(N)=O)C(=O)N[C@@H]([C@@H](C)O)C(=O)N[C@@H](C)C(=O)N[C@@H]([C@@H](C)O)C(=O)N1)[C@@H](C)O)C(C)C)C(=O)N[C@@H](CC(C)C)C(=O)N[C@@H](CO)C(=O)N1CCC[C@H]1C(=O)N[C@H](C(=O)N[C@@H](CC(N)=O)C(=O)N[C@H](C(=O)NCC(=O)N[C@@H](CO)C(=O)N[C@@H](CC(N)=O)C(=O)N[C@H](C(=O)N[C@@H](Cc1ccc(O)cc1)C(N)=O)[C@@H](C)O)C(C)C)[C@@H](C)O [Peptide 115] (H-K([γGlu-γGlu-C20 diacid])CNTATCATQRLANFLVHSSPNFPAILSPTNVGSNTY-NH2; disulfide 2-7 (inferred)) | 11 |  |  |
| CC[C@H](C)[C@H](NC(=O)[C@H](C)NC(=O)[C@@H]1CCCN1C(=O)[C@H](Cc1ccccc1)NC(=O)[C@H](CC(N)=O)NC(=O)[C@@H]1CCCN1C(=O)[C@H](CO)NC(=O)[C@H](CO)NC(=O)[C@H](Cc1c[nH]cn1)NC(=O)[C@@H](NC(=O)[C@H](CC(C)C)NC(=O)[C@H](Cc1c[nH]c2ccccc12)NC(=O)[C@H](CC(N)=O)NC(=O)[C@H](C)NC(=O)[C@H](CC(C)C)NC(=O)[C@H](CCCNC(=N)N)NC(=O)[C@H](CCC(N)=O)NC(=O)[C@@H](NC(=O)[C@H](C)NC(=O)[C@@H]1CSSC[C@H](NC(=O)[C@@H](N)CCCCNC(=O)CC[C@H](NC(=O)CC[C@H](NC(=O)CCCCCCCCCCCCCCCCCCC(=O)O)C(=O)O)C(=O)O)C(=O)N[C@@H](CC(N)=O)C(=O)N[C@@H](C)C(=O)N[C@@H](C)C(=O)N[C@@H]([C@@H](C)O)C(=O)N1)[C@@H](C)O)C(C)C)C(=O)N[C@@H](CC(C)C)C(=O)N[C@@H](CO)C(=O)N1CCC[C@H]1C(=O)N[C@H](C(=O)N[C@@H](CC(N)=O)C(=O)N[C@H](C(=O)NCC(=O)N[C@@H](CO)C(=O)N[C@@H](CC(N)=O)C(=O)N[C@H](C(=O)N[C@@H](Cc1ccc(O)cc1)C(N)=O)[C@@H](C)O)C(C)C)[C@@H](C)O [Peptide 120] (H-K([γGlu-γGlu-C20 diacid])CNAATCATQRLANWLVHSSPNFPAILSPTNVGSNTY-NH2; disulfide 2-7 (inferred)) | 6 |  |  |

Reference: US20240067693A1, “POLYPEPTIDES AND USES THEREOF” (MEDIMMUNE LIMITED, priority 2020, published 2024)
